50 molecules from patent US20070270418A1, “Inhibitors of P38 and Methods of Using the Same” (priority 2003, published 2007) can be followed below.

The structures appear in SMILES notation. Read-outs that look alike come from different tables or passages of the source.

As usually defined, the IC50 is the concentration needed to halve the response being measured.

The target in one test is T1, p38α (Homo sapiens, UniProt Q16539).
T1 construct: p38 MAP Kinases are recombinant human full-length proteins with an amino-terminal GST fusion; GST (N); purchased Upstate (Charlottesville, Va.); host or cells: E. coli
Briefly: p38 MAP Kinase assay, ATF2 phosphorylation (ELISA). The class given is biochemical. To be noted: 40 μM ATP. An outline of the steps: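 Recombinant full-length GST-tagged human p38α (6 ng) pre-incubated 15 min at room temperature with compound, then reacted 30 min at 37° C with 40 μM ATP and 1.25 μM GST-ATF2 (aa 19-96) in HEPES pH 7.5/MgCl2 buffer. EDTA stop; ATF2 Thr69 phosphorylation measured by anti-phospho-ATF2 ELISA at 450 nm.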
(ELISA stands for enzyme-linked immunosorbent assay.)

Test [1] has as its system TNFα release from THP-1 cells. Description: TNFα release from LPS-stimulated THP-1 cells. The class given is cell-based. The source says:
Compounds of the invention are screened for the ability to inhibit TNFα and IL-1β release from THP-1 cells stimulated with lipopolysaccharide (LPS) in vitro. The ability of compounds to inhibit TNFα and IL-1β release in this in vitro assay is correlated with the inhibition of p38 activity and TNFα and IL-1β expression in vivo, and is therefore an indicator of potential in vivo therapeutic activity (Lee J. C. et al, Ann. N.Y. Acad. Sci. 696: 149-170, 1993 and Nature, 372: 739-746, 1994).
THP-1 cells from ATCC (TIB202) are maintained at 37° C., 5% CO2 in RPMI 1640 media (MediaTech, Herndon, Va.) containing 4.5 g/L glucose, supplemented with 10% fetal bovine serum, 1% penicillin/streptomycin and 50 μM β-mercaptoethanol.
Test compounds are initially dissolved in RPMI media with 1% DMSO (v/v). Compounds are then serially diluted in RPMI media for all subsequent dilutions. The assay is performed under sterile conditions. THP-1 cells at a culture density of 6-8×10^5 cells/ml are collected and resuspended in the RPMI media at 10^6 cells/ml. 100 μl of resuspended cells are added to each well, which contain 100 μl of a test compound. Test compounds are prepared at twice the final concentration. Final DMSO concentration is no more than 0.5% (v/v). Cells are preincubated with compound for 30 minutes at 37° C., 5% CO2 prior to stimulation with lipopolysaccharide (LPS) (Sigma L-2880, 4 mg/ml stock in PBS). The final LPS concentration in each well is 10 or 30 μg/ml for TNFα and IL-1β release, respectively. Unstimulated control cell suspensions receive PBS vehicle only. Cell mixtures are incubated for 18 or 48 hours for TNFα and IL-1β release, respectively. 150 μl of supernatants are taken and transferred to a fresh plate and stored at −20° C. until further analysis.

Where [2] appears, read: Homo sapiens, THP-1, 18 h, LPS 10 μg/ml, 18 hours, read-out: TNFα (THP-1) IC50.
The mark [3] stands for this setting: LPS 10 μg/ml, 18 hours, read-out: TNFα (THP-1) IC50.
Setting [4] is: Homo sapiens, THP-1, 18 h, read-out: TNFα (THP-1) IC50 (nM).

T1 sequence (Q16539 whole entry, the tested form may be a part): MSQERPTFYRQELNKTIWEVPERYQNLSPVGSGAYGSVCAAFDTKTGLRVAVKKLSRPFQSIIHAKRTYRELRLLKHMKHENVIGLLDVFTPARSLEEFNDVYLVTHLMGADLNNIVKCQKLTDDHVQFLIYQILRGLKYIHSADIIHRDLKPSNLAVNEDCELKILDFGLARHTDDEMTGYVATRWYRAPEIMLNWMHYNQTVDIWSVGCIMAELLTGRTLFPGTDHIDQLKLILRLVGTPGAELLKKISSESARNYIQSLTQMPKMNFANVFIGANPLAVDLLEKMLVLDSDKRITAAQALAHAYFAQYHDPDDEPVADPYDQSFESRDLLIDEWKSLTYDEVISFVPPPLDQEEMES

For `C[C@@H](Nc1nccc(-c2c(-c3ccc(F)cc3)nc3sccn23)n1)C(N)=O` [CCLIX], the IC50 was found to be 22.2 nM at p38α and 47.7 nM in test [1] (setting [2]).
For `Fc1ccc(-c2nc3occn3c2-c2ccnc(NCCCN3CCOCC3)n2)cc1` [LIII], in that order: 361 nM and 236 nM.
`C[C@H](O)CNc1nccc(-c2c(-c3ccc(F)cc3)nc3sccn23)n1` [CCXIV]: the results for the IC50 (on p38α; in test [1] (setting [2])) were 12.1 nM and 5.03 nM, respectively.
On to `O[C@H]1CCCC[C@@H]1Nc1nccc(-c2c(-c3ccc(F)cc3)nc3occn23)n1` [LXIX], for which the IC50 at p38α came to 83.3 nM; in test [1] (setting [2]) it was 11.4 nM.
The matching figures for `CCCNc1nccc(-c2c(-c3ccc(F)cc3)nc3occn23)n1` [XXVIII]: 3.47 nM and 15.3 nM.
`Fc1ccc(CN2CCC(Nc3nccc(-c4c(-c5ccc(F)cc5)nc5sccn45)n3)CC2)cc1` [CCLIV]: the concentration for half-maximal inhibition (IC50) on p38α turned out to be 30.2 nM; in test [1] (setting [2]), 345 nM.
In the case of `C[C@H](CO)Nc1nccc(-c2c(-c3ccc(F)cc3)nc3occn23)n1` [CV], the IC50 came out at 3.09 nM against p38α and 8.67 nM in test [1] (setting [2]).
Regarding `Cc1ccc(-c2nc3sccn3c2-c2ccnc(N[C@H](CO)C(C)C)n2)cc1` [CCLXXVII], the values for the IC50 (against p38α; in test [1] (setting [3])) were 147 nM and 58.7 nM, respectively.
For `Fc1ccc(-c2nc3sccn3c2-c2ccnc(NCCN3CCCCC3)n2)cc1` [CCXLV], the IC50 was 82.1 nM at p38α and 14.2 nM in test [1] (setting [2]).
The matching figures for `Fc1ccc(-c2nc3occn3c2-c2ccnc(NCc3nc4ccccc4[nH]3)n2)cc1` [CXIV]: 183 nM and 913 nM.
The matching figures for `NC(=O)[C@H](Cc1ccccc1)Nc1nccc(-c2c(-c3ccc(F)cc3)nc3occn23)n1` [CXXVIII]: 71 nM and 1390 nM.
In the case of `CCCC[C@H](CO)Nc1nccc(-c2c(-c3ccc(F)cc3)nc3occn23)n1` [CXI], the figures for the IC50 (at p38α; in test [1] (setting [2])) were 11.2 nM and 65.9 nM, respectively.
For `Nc1ccc(CCNc2nccc(-c3c(-c4ccc(F)cc4)nc4occn34)n2)cc1` [CXV], in that order: 1.73 nM and 41.9 nM.
For the molecule `C[C@H](Nc1nccc(-c2c(-c3ccc(F)cc3)nc3occn23)n1)[C@H](O)c1ccccc1` [LXIII], the figures for the IC50 (on p38α; in test [1] (setting [2])) were 38.5 nM and 87.4 nM, respectively.
The matching figures for `CN1[C@@H]2CC[C@H]1C[C@@H](Nc1nccc(-c3c(-c4cccc(C(F)(F)F)c4)nc4occn34)n1)C2` [CCCX]: 9.3 nM and 47.9 nM.
The matching figures for `Cc1ccc(CNc2nccc(-c3c(-c4ccc(F)cc4)nc4occn34)n2)o1` [XXXVI]: 103 nM and 76.6 nM.
The matching figures for `CCC(O)CNc1nccc(-c2c(-c3ccc(F)cc3)nc3sccn23)n1` (stereo not shown) [CCXLII]: 3.28 nM and 3.83 nM.
Regarding `CCCNc1nccc(-c2c(-c3ccc(F)cc3)nc3sccn23)n1` [CCXVI], the IC50 against p38α was determined as 4.68 nM; in test [1] (setting [2]), 5.15 nM.
`CCCCC(CO)Nc1nccc(-c2c(-c3ccc(F)cc3)nc3occn23)n1` (stereo not shown) [LX]: the IC50 came to 20.5 nM against p38α and 69.7 nM in test [1] (setting [2]).
For `CC(C)[C@H](CO)Nc1nccc(-c2c(-c3ccc(F)cc3)nc3sccn23)n1` [CCXXXII], in that order: 2.06 nM and 11.1 nM.
For `Fc1ccc(-c2nc3sccn3c2-c2ccnc(OCc3ccccc3)n2)cc1` [CXLIX], in that order: 152 nM and 391 nM.
Consider `Fc1ccc(-c2nc3occn3c2-c2ccnc(NC3CCC3)n2)cc1` [XXIV], for which the results for the IC50 (against p38α; in test [1] (setting [2])) were 15 nM and 1.78 nM, respectively.
The matching figures for `Fc1ccc(-c2nc3sccn3c2-c2ccnc(NCC3CC3)n2)cc1` [CCXIII]: 13.3 nM and 5.63 nM.
The matching figures for `Fc1ccc(-c2nc3occn3c2-c2ccnc(N3CCOCC3)n2)cc1` [XCIX]: 71.1 nM and 854 nM.
For `Fc1ccc(-c2nc3occn3c2-c2ccnc(NCCN3CCN(Cc4ccccc4)CC3)n2)cc1` [CXXV], in that order: 258 nM and 1360 nM.
`CC(C)[C@@H](CO)Nc1nccc(-c2c(-c3ccc(F)c(F)c3)nc3sccn23)n1` [CCLXXV]: the IC50 against p38α came to 191 nM; in test [1] (setting [3]) it was 43.3 nM.
Regarding `CS(=O)(=O)N1CCC(Nc2nccc(-c3c(-c4ccc(F)cc4Cl)nc4occn34)n2)CC1` [CCCXIX], the IC50 was 0.3 nM at p38α and 17.7 nM in test [1] (setting [2]).
Turning to `O[C@H]1CC[C@H](Nc2nccc(-c3c(-c4ccc(F)cc4)nc4occn34)n2)CC1` [LIX], the IC50 was 1.79 nM on p38α and 55.4 nM in test [1] (setting [2]).
Turning to `OC[C@H](Cc1ccccc1)Nc1nccc(-c2c(-c3ccc(F)cc3)nc3sccn23)n1` [CLXXXI], the IC50 on p38α came to 176 nM; in test [1] (setting [2]), 138 nM.
Regarding `CCNc1nccc(-c2c(-c3ccc(F)cc3)nc3occn23)n1` [XCV], the IC50 against p38α is 3.42 nM; in test [1] (setting [2]), 18 nM.
On to `CCC(O)CNc1nccc(-c2c(-c3ccc(F)cc3)nc3occn23)n1` (stereo not shown) [XVII], for which the IC50 against p38α amounted to 15.7 nM; in test [1] (setting [2]), 15.9 nM.
The matching figures for `Cc1ccccc1-c1nc2occn2c1-c1ccnc(NC2CCN(C(=O)OC(C)(C)C)CC2)n1` [CCLXXXVIII]: 4.8 nM and 211 nM.
With `O=C(c1ccc(F)cc1)N1CCC(Nc2nccc(-c3c(-c4ccc(F)cc4)nc4sccn34)n2)CC1` [CCLII], the IC50 on p38α is 2.02 nM; in test [1] (setting [2]) it was 21.9 nM.
Turning to `COc1ccc(CCNc2nccc(-c3c(-c4ccc(F)cc4)nc4occn34)n2)cc1` [CXIII], the IC50 worked out at 7.88 nM against p38α and 127 nM in test [1] (setting [2]).
Take `Fc1ccc(-c2nc3occn3c2-c2ccnc(N[C@@H]3CN4CCC3CC4)n2)c(F)c1` [CCLXXXIX]: the IC50 is 1.3 nM against p38α and 3.2 nM in test [1] (setting [4]).
On to `CCCC(CO)Nc1nccc(-c2c(-c3ccc(F)cc3)nc3occn23)n1` (stereo not shown) [XXXIV], for which the IC50 against p38α amounted to 2.19 nM; in test [1] (setting [2]) it was 19.7 nM.
As to `CC(C)Nc1nccc(-c2c(-c3ccc(F)cc3)nc3occn23)n1` [C], the results for the IC50 (against p38α; in test [1] (setting [2])) were 0.893 nM and 3.19 nM, respectively.
With `OC(CNc1nccc(-c2c(-c3ccc(F)cc3)nc3occn23)n1)c1ccccc1` (stereo not shown) [LVII], the IC50 at p38α amounted to 8.96 nM; in test [1] (setting [2]), 58.5 nM.
The matching figures for `Fc1ccc(-c2nc3occn3c2-c2ccnc(NCC3CC3)n2)cc1` [XXIX]: 4.28 nM and 4.45 nM.
Regarding `COCCNc1nccc(-c2c(-c3ccc(F)cc3)nc3occn23)n1` [XX], the values for the IC50 (against p38α; in test [1] (setting [2])) were 24.3 nM and 65 nM, respectively.
In the case of `Fc1ccc(-c2nc3occn3c2-c2ccnc(NCCCn3ccnc3)n2)cc1` [LVI], the figures for the IC50 (against p38α; in test [1] (setting [2])) were 14 nM and 96.9 nM, respectively.
Turning to `Clc1ccccc1-c1nc2occn2c1-c1ccnc(N[C@H]2CN3CCC2CC3)n1` [CCCIII], the IC50 amounted to 12.5 nM against p38α and 9 nM in test [1] (setting [4]).
With `Fc1ccc(-c2nc3sccn3c2-c2ccnc(NCc3nc4ccccc4[nH]3)n2)cc1` [CCXL], the IC50 was 135 nM against p38α and 3300 nM in test [1] (setting [2]).
The matching figures for `Fc1ccc(-c2nc3occn3c2-c2ccnc(NC3CCNCC3)n2)c(F)c1` [CCLXXXV]: 3.3 nM and 9.9 nM.
The matching figures for `CC(C)[C@@H](CO)Nc1nccc(-c2c(-c3ccc(F)cc3)nc3occn23)n1` [XII]: 16.7 nM and 11.8 nM.
In the case of `Cc1ccccc1-c1nc2occn2c1-c1ccnc(N[C@@H]2CN3CCC2CC3)n1` [CCXCII], the values for the IC50 (on p38α; in test [1] (setting [4])) were 16.3 nM and 47.8 nM, respectively.
For the molecule `Fc1ccc(-c2nc3occn3c2-c2ccnc(NC[C@@H]3CCCO3)n2)cc1` [XLII], the IC50 against p38α is 80.8 nM; in test [1] (setting [2]), 11.2 nM.
For `Fc1ccc(-c2nc3sccn3c2-c2ccnc(NCCN3CCOCC3)n2)cc1` [CCXLIX], in that order: 31.6 nM and 20.3 nM.
`CC(C)(C)OC(=O)N1CCC(CNc2nccc(-c3c(-c4ccc(F)cc4)nc4sccn34)n2)CC1` [CCXXXVIII]: the figures for the half-maximal inhibitory concentration (IC50) (against p38α; in test [1] (setting [2])) were 87.6 nM and 162 nM, respectively.
On to `OC1(CNc2nccc(-c3c(-c4ccc(F)cc4)nc4occn34)n2)CCCc2ccccc21` (stereo not shown) [CXXIII], for which the values for the IC50 (at p38α; in test [1] (setting [2])) were 27.2 nM and 99 nM, respectively.
